This is an account of results in publication PMC10154247, “Complex regulation in a Comamonas platform for diverse aromatic carbon metabolism” (Nature Chemical Biology, 2023).

The target of one test is T1, PEPs (PEP synthase) (Comamonas testosteroni, UniProt B7X5R8).
T1 construct: gene CtesDRAFT_PD3828; N-terminal His tag with TEV site, start codon removed; recombinant in E. coli BL21 (DE3), Ni-NTA
T1 sequence (B7X5R8 2-796): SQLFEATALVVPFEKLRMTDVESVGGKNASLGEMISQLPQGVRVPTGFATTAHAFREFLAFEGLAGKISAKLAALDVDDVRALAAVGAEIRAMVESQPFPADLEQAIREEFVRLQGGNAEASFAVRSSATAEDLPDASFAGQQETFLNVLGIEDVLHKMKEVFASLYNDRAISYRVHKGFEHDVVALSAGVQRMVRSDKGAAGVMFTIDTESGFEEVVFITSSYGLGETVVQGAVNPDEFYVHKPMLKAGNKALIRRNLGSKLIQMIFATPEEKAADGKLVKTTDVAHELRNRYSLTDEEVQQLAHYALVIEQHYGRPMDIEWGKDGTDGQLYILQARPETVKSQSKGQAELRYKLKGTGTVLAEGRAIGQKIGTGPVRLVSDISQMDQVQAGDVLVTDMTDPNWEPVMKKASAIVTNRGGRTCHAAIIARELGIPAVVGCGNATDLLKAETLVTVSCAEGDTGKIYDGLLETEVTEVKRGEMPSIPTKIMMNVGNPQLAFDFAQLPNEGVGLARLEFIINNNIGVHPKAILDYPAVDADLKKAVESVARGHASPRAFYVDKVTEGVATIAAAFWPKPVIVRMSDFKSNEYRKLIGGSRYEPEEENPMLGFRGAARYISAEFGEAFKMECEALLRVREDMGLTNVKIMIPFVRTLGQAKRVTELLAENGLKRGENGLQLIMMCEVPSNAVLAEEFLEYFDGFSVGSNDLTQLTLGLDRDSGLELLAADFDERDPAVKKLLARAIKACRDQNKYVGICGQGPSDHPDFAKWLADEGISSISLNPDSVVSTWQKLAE
The test is described as follows: pyruvate consumption by HPLC-RI. Type of test: biochemical. Conditions: allosteric inhibitor, 2 or 5 mM (printed as 'up to'); 1 mM pyruvate, 1.5 mM ATP, 5 mM MgCl2, pH 7.5, 30 °C.

Another test deals with T2, ME-2 (Comamonas testosteroni, UniProt B7X1D4).
T2 construct: gene CtesDRAFT_PD5092
T2 sequence (B7X1D4 2-769): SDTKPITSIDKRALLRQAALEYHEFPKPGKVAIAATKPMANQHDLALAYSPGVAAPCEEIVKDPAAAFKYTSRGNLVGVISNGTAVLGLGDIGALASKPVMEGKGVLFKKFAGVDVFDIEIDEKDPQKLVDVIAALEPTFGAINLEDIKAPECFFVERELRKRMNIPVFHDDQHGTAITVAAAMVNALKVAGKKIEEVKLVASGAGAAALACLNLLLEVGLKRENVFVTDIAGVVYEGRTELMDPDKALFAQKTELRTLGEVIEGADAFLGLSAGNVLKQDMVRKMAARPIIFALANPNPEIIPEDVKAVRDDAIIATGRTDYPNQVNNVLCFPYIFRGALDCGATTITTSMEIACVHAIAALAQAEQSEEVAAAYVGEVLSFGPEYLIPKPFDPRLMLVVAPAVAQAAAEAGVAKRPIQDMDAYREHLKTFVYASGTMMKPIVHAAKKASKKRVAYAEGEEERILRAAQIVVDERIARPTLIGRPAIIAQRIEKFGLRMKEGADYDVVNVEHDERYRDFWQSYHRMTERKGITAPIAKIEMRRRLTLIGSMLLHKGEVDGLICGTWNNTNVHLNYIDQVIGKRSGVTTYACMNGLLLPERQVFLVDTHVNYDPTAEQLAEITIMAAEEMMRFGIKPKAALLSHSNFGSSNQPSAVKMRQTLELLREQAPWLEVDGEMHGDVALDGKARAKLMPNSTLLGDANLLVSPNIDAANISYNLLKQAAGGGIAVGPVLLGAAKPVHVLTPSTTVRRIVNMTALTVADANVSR
The test is described as follows: NADH formation at […] nm. Conditions: 0.5 and 2 mM, 1 mM L-malate, 0.5 mM NAD+, 5 mM MnCl2, pH 7.5, 30 °C.

For test [1], the target named is T3, PobA (4HB 3-monooxygenase) (Comamonas testosteroni, UniProt B7WVQ9).
T3 construct: gene CtesDRAFT_PD2627; N-terminal His tag with TEV site, start codon removed; recombinant in E. coli BL21 (DE3), Ni-NTA
The test is described as follows: NAD(P)H oxidation at […] nm. Type of test: biochemical. As to conditions: 10 mM 4HB, 5 mM MgCl2, pH 7.5, 30 °C.

In another test the target is T4, Mdh (Comamonas testosteroni, UniProt A0A096F047).
T4 construct: gene mdh_1; C-terminal His tag, start and stop codons deleted; recombinant in E. coli BL21 (DE3), Ni-NTA
Description: NAD(P)H oxidation at […] nm. Type of test: biochemical. As to conditions: 10 mM oxaloacetate, 5 mM MgCl2, pH 7.5, 30 °C.

In a further test the target is T5, ME-1 (Comamonas testosteroni, UniProt B7WXG5).
T5 construct: gene CtesDRAFT_PD0934
T5 sequence (B7WXG5 2-765): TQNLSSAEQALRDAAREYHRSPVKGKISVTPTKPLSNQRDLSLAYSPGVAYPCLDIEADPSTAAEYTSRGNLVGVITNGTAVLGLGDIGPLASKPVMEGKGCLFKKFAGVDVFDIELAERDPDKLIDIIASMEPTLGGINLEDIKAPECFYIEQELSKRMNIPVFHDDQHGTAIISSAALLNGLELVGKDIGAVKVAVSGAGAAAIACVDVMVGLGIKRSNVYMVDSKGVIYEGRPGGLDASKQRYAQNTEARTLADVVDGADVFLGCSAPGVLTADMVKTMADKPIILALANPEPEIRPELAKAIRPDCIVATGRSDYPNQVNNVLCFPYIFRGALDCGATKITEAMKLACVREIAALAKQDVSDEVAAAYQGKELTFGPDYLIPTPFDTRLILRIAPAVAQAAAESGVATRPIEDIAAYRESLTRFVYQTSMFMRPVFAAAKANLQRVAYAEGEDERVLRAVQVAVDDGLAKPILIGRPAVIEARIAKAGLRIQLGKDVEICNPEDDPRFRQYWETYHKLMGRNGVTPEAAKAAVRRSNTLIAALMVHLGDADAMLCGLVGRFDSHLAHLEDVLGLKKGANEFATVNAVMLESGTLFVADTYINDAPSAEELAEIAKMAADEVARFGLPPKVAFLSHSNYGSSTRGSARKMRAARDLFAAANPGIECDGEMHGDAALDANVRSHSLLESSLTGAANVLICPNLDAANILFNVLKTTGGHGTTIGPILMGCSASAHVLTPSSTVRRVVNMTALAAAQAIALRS
Description: NADPH formation at […] nm. Conditions: allosteric activator, 0.5 and 2 mM; 1 mM L-malate, 0.5 mM NADP+, 5 mM MnCl2, pH 7.5, 30 °C.

Each structure is given as a SMILES string.

T4 sequence (A0A096F047 2-329): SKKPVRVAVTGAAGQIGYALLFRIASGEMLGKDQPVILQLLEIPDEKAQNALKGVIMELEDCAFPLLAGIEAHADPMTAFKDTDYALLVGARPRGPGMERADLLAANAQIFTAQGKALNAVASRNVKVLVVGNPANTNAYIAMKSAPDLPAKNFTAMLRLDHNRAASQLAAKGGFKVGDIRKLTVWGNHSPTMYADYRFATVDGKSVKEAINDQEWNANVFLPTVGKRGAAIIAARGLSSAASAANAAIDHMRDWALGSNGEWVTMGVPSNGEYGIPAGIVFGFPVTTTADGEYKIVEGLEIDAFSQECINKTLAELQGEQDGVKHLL

`O=C(O)CCC(=O)C(=O)O` [αKG]: the “% decrease in pyruvate consumption” value on PEPs (PEP synthase) is ~ 35%. Besides, at ME-2 (allosteric inhibitor), the “relative activity (%)” value is “only high concentrations of αKG had a significant inhibitory impact on ME-2”.

Regarding `NC(=O)C1=CN([C@@H]2O[C@H](COP(=O)(O)OP(=O)(O)OC[C@H]3O[C@@H](n4cnc5c(N)ncnc54)[C@H](OP(=O)(O)O)[C@@H]3O)[C@@H](O)[C@H]2O)C=CC1` [NADPH], the “NAD(P)H oxidation at 340 nm” value in test [1] was “NADPH was the cofactor for PobA and for ME-1, IDH1 and IDH2”.

As for `NC(=O)C1=CN([C@@H]2O[C@H](COP(=O)(O)OP(=O)(O)OC[C@H]3O[C@@H](n4cnc5c(N)ncnc54)[C@H](O)[C@@H]3O)[C@@H](O)[C@H]2O)C=CC1` [NADH], the “NAD(P)H oxidation at 340 nm” value at Mdh was “NADH was the preferred cofactor for ME-2 and Mdh”.

Turning to `O=C(O)CCC(=O)O` [succinate], the “relative activity (%)” value was “moderate activation in the presence of succinate and glutamate” at ME-1; “moderate activation in the presence of succinate and glutamate” at ME-2 (allosteric activator).
